Assay results published in article PMC6829278, “Suitability of GnRH Receptors for Targeted Photodynamic Therapy in Head and Neck Cancers” (International Journal of Molecular Sciences, 2019).
Read-outs that look alike come from different tables or passages of the source. Square brackets hold non-standard residues; d marks the D form. Peptide text beside a SMILES is read from it. * marks the point of attachment. X1 = C=CC1=C(C)c2cc3[nH]c(cc4nc(cc5[nH]c(cc1n2)c(C)c5CCC(=O)O)C(CCC(=O)*)=C4C)c(C)c3C=C; pGlu = O=C1CC[C@@H](C(=O)O)N1; Butyryl = CCCC(=O)*

Key:
[1] = molecular target: T1, GnRH-R (membranes of human pituitary) (Homo sapiens, UniProt P30968); test: Radioligand binding (ligand competition) assay, displacement of [125I]-[6D-Trp]-GnRH-I, human pituitary membranes; conditions: for Inhibition of the binding of [125I]-[6D-Trp]-GnRH-I: at a concentration of 10^-6 M, tissue (human pituitary / human prostate cancer) not specified
T1 construct: Tissue samples derived by autopsy from normal human pituitary (anterior lobe); from tissue; host or cells: normal human pituitary (anterior lobe), autopsy; membrane homogenates
T1 sequence (P30968 1-328): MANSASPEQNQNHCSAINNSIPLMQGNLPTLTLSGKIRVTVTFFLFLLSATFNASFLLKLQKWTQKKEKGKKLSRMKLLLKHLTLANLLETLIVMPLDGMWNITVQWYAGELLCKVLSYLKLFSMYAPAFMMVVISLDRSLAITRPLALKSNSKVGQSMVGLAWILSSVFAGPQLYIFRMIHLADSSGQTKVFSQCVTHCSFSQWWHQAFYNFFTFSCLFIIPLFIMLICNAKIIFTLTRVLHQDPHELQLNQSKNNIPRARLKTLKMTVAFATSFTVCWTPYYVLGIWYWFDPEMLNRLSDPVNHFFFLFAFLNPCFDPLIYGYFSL
Description: (§1) The binding potency of the GnRH analogs and the GnRH-PpIX conjugates to human pituitary and human prostate cancer cells, that express GnRH-R in high concentration, was investigated by ligand competition assay.
(§2) Tissue samples derived by autopsy from normal human pituitary (anterior lobe) and human prostate cancer cells were obtained from a patient at the time of initial surgical treatment. The collection and the use of these specimens for our studies are approved by the local Institutional Ethics Committee. […] The assay was performed as described earlier. […] At the end of the incubation, 125 µL aliquots of suspension were transferred onto the top of 1 mL of ice-cold binding buffer containing 1.5% BSA in microcentrifuge tubes. The tubes were centrifuged at 12,000× g for 3 min at 4 °C. Supernatants were aspirated and the pellet was counted in a gamma counter. Protein concentration was determined by the method of Bradford, using a Bio-Rad protein assay kit (Bio-Rad Laboratories, Hercules, CA, USA). The LIGAND-PC computerized curve-fitting program of Munson and Rodbard was used to determine the receptor binding characteristics and IC50 values.

[2] = test system: Detroit-562 human pharyngeal carcinoma cells; test: cells; conditions: for Effect of incubation time on cell viability inhibition: incubation 1, 3 or 5 h
Experimental: (compound 5) was used for the optimization of the conditions of the cell viability inhibition assays. First, the irradiation time was optimized. Detroit-562 pharyngeal cells were treated with the peptide-PpIX conjugate for 5 h, the unbound conjugate was washed out, and then the cells were irradiated for 0, 2, 10, or 30 min followed by 72 h of further incubation (Figure 6A).
Afterwards, the incubation time was optimized.
The cell viability inhibition of the synthesized GnRH-PpIX conjugates was measured on Detroit-562 cells using the previously optimized conditions (5 h treatment, 10 min irradiation).
Cells were seeded to 96-well plates (6·× 10^3 cells/well) 48 h prior to the treatment. The cells were treated with the peptides (10 μM) and conjugates (0.025–10 μM) in darkness. Stock solutions of the compounds were prepared in DMSO (5 mM) and all dilutions were made to contain 0.2% DMSO final concentration. The control wells were treated with medium or 0.2% DMSO containing medium. After 1, 3, or 5 h, the cells were washed once with medium, irradiated for 0, 2, 10, or 30 min and incubated for a further 72 h. The irradiation was performed by an Oriel type 250 W Quartz Tungsten Halogen lamp (Newport Corporation, CA, USA) with a 550 nm emission maximum. The light was filtered to exclude UV and IR components. The fluence rate was determined by a 10 A-P Nova laser power/energy monitor (Ophir, Optronix, Jerusalem, Israel) using the pyro-electric detector. Then, the MTT-test was performed according to the manufacturer’s instructions. Each point was measured using 3 parallels and each experiment was repeated twice.

[3] = molecular target: T2, GnRH-R (membranes of human prostate cancer cells) (Homo sapiens, UniProt P30968); test: Radioligand binding (ligand competition) assay, displacement of [125I]-[6D-Trp]-GnRH-I, human prostate cancer membranes
T2 construct: human prostate cancer cells were obtained from a patient at the time of initial surgical treatment; from tissue; host or cells: human prostate cancer specimen from a patient at surgery; membrane homogenates
T2 sequence (P30968 1-328): T1 sequence (P30968 1-328)
Description: as §1, §2

[4] = Detroit-562, 0.1 µM, 5 h treatment, 10 min irradiation
[5] = membranes of human prostate cancer cells, read-out: IC50 Values, inhibition of [125I]-[6D-Trp]-GnRH-I binding, Human Prostate Cancer
[6] = membranes of human pituitary, read-out: IC50 Values, inhibition of [125I]-[6D-Trp]-GnRH-I binding, Human Pituitary
[7] = Detroit-562, 10 min irradiation

Compound | Inhibition of the binding of [125I]-[6D-Trp]-GnRH-I [1] | IC50 [3, 5] [nM] | IC50 [1, 6] [nM] | also measured
glucagon: peptide used as binding specificity control [reference compound] | did not inhibit | – | – | –
C=CC1=C(C)c2cc3[nH]c(cc4nc(cc5[nH]c(cc1n2)c(C)c5CCC(=O)O)C(CCC(=O)NCCCC[C@@H](NC(=O)[C@H](Cc1c[nH]cn1)NC(=O)[C@H](CCCCNC(=O)CCC)NC(=O)[C@H](Cc1c[nH]c2ccccc12)NC(=O)[C@H](Cc1c[nH]cn1)NC(=O)[C@@H]1CCC(=O)N1)C(=O)N[C@@H](Cc1c[nH]c2ccccc12)C(=O)N[C@@H](Cc1ccc(O)cc1)C(=O)N1CCC[C@H]1C(=O)NCC(N)=O)=C4C)c(C)c3C=C [compound 7, GnRH-II[^4Lys(Bu), ^6D-Lys(PpIX)]] ([pGlu]HWK(Butyryl)H[dK](X1)WYPG-NH2) | – | 84.5 ± 10.3 | 79.4 ± 8.88 | IC50 ([2]; 5 h): 71.1 ± 6.2 nM; Cell viability inhibition [2, 4]: > 90%
C=CC1=C(C)c2cc3[nH]c(cc4nc(cc5[nH]c(cc1n2)c(C)c5CCC(=O)O)C(CCC(=O)NCCCC[C@@H](NC(=O)[C@H](Cc1ccc(O)cc1)NC(=O)[C@H](CO)NC(=O)[C@H](Cc1c[nH]c2ccccc12)NC(=O)[C@H](Cc1c[nH]cn1)NC(=O)[C@@H]1CCC(=O)N1)C(=O)N[C@@H](CC(C)C)C(=O)N[C@@H](CCCNC(=N)N)C(=O)N1CCC[C@H]1C(=O)NCC(N)=O)=C4C)c(C)c3C=C [compound 5, GnRH-I[^6D-Lys(PpIX)]] | – | 42.7 ± 7.04 | 36.3 ± 3.17 | IC50 ([2]; 5 h): 62.3 ± 5.9 nM; Cell viability inhibition [2, 4]: > 90%; Cell viability inhibition (irradiation time optimization) [2, 4]: ~ 98%; Cell viability inhibition (irradiation time optimization) ([2]; Detroit-562, 0.1 µM, 5 h treatment, 30 min irradiation): ~ 98%; Toxicity in the absence of light ([2]; Detroit-562, 5 h treatment, 0 min irradiation, 72 h further incubation): non-toxic; Cell viability inhibition ([2]; Detroit-562, 5 h treatment, 2 min irradiation, sub-micromolar concentration): 50%; Effect of incubation time on cell viability inhibition [2, 7]: higher activity
C=CC1=C(C)c2cc3[nH]c(cc4nc(cc5[nH]c(cc1n2)c(C)c5CCC(=O)O)C(CCC(=O)NCCCC[C@H](NC(=O)[C@H](Cc1c[nH]c2ccccc12)NC(=O)[C@H](CC(=O)OC)NC(=O)[C@H](Cc1c[nH]cn1)NC(=O)[C@H](CCCCNC(=O)CCC)NC(=O)[C@H](Cc1c[nH]c2ccccc12)NC(=O)[C@H](Cc1c[nH]cn1)NC(=O)[C@@H]1CCC(=O)N1)C(=O)N1CCC[C@H]1C(=O)NCC(N)=O)=C4C)c(C)c3C=C [compound 8, GnRH-III[^4Lys(Bu), ^6Asp(OMe), ^8Lys(PpIX)]] | – | – | – | Cell viability inhibition [2, 4]: 65–70%; IC50 ([2]; read-out: Calculated IC50 values, cell viability inhibition, Detroit-562 cells, 5 h incubation, 10 min irradiation, further 72 h, MTT): 81.8 ± 12.6 nM; IC50 [3]: 341 ± 21.1 nM; IC50 [1]: 289 ± 17.3 nM
EGF: peptide used as binding specificity control [reference compound] | did not inhibit | – | – | –
C=CC1=C(C)c2cc3[nH]c(cc4nc(cc5[nH]c(cc1n2)c(C)c5CCC(=O)O)C(CCC(=O)O)=C4C)c(C)c3C=C [PpIX, Protoporphyrin IX, reference compound] | did not inhibit | – | – | Cell viability inhibition ([2]; Detroit-562, 0.25 µM, 5 h treatment, 10 min irradiation): ~ 50%; Effect of incubation time on cell viability inhibition [2, 7]: no significant difference; IC50 ([2]; Homo sapiens, Detroit 562, light or radiation study, read-out: Calculated IC50 values, cell viability inhibition): 209 ± 120 nM
C=CC1=C(C)c2cc3[nH]c(cc4nc(cc5[nH]c(cc1n2)c(C)c5CCC(=O)O)C(CCC(=O)NCCCC[C@@H](NC(=O)[C@H](Cc1ccc(O)cc1)NC(=O)[C@H](CCCCNC(=O)CCC)NC(=O)[C@H](Cc1c[nH]c2ccccc12)NC(=O)[C@H](Cc1c[nH]cn1)NC(=O)[C@@H]1CCC(=O)N1)C(=O)N[C@@H](CC(C)C)C(=O)N[C@@H](CCCNC(=N)N)C(=O)N1CCC[C@H]1C(=O)NCC(N)=O)=C4C)c(C)c3C=C [compound 6, GnRH-I[^4Lys(Bu), ^6D-Lys(PpIX)]] ([pGlu]HWK(Butyryl)Y[dK](X1)LRPG-NH2) | – | 41.8 ± 5.74 | 42.3 ± 4.27 | IC50 ([2]; 5 h): 89.8 ± 19.4 nM; Cell viability inhibition [2, 4]: 65–70%
CCCC(=O)NCCCC[C@H](NC(=O)[C@H](Cc1c[nH]c2ccccc12)NC(=O)[C@H](Cc1c[nH]cn1)NC(=O)[C@@H]1CCC(=O)N1)C(=O)N[C@@H](Cc1ccc(O)cc1)C(=O)N[C@H](CCCCN)C(=O)N[C@@H](CC(C)C)C(=O)N[C@@H](CCCNC(=N)N)C(=O)N1CCC[C@H]1C(=O)NCC(N)=O [compound 2, GnRH-I[^4Lys(Bu), ^6D-Lys]] ([pGlu]HWK(Butyryl)Y[dK]LRPG-NH2) | – | 8.61 ± 1.08 | 9.7 ± 1.07 | –
CCCC(=O)NCCCC[C@H](NC(=O)[C@H](Cc1c[nH]c2ccccc12)NC(=O)[C@H](Cc1c[nH]cn1)NC(=O)[C@@H]1CCC(=O)N1)C(=O)N[C@@H](Cc1c[nH]cn1)C(=O)N[C@@H](CC(=O)OC)C(=O)N[C@@H](Cc1c[nH]c2ccccc12)C(=O)N[C@@H](CCCCN)C(=O)N1CCC[C@H]1C(=O)NCC(N)=O [compound 4, GnRH-III[^4Lys(Bu), ^6Asp(OMe)]] | – | 6.56 ± 1.11 | 7.27 ± 0.92 | –
VIP: peptide used as binding specificity control [reference compound] | did not inhibit | – | – | –
IGF-I: peptide used as binding specificity control [reference compound] | did not inhibit | – | – | –
CCCC(=O)NCCCC[C@H](NC(=O)[C@H](Cc1c[nH]c2ccccc12)NC(=O)[C@H](Cc1c[nH]cn1)NC(=O)[C@@H]1CCC(=O)N1)C(=O)N[C@@H](Cc1c[nH]cn1)C(=O)N[C@H](CCCCN)C(=O)N[C@@H](Cc1c[nH]c2ccccc12)C(=O)N[C@@H](Cc1ccc(O)cc1)C(=O)N1CCC[C@H]1C(=O)NCC(N)=O [compound 3, GnRH-II[^4Lys(Bu), ^6D-Lys]] ([pGlu]HWK(Butyryl)H[dK]WYPG-NH2) | – | 4.65 ± 0.31 | 5.56 ± 1.07 | –
somatostatin-14: peptide structurally and/or functionally unrelated to GnRH, binding specificity control [reference compound] | did not inhibit | – | – | –
hGHRH: peptide used as binding specificity control [reference compound] | did not inhibit | – | – | –
